This note sets out measurements from ChEMBL document CHEMBL1201862, “PubChem BioAssay data set” (2004).

For experiment [1], the target named is T1, Replicative DNA helicase DnaB (Mycobacterium tuberculosis, UniProt P9WMR3).
T1 sequence (P9WMR3 whole entry): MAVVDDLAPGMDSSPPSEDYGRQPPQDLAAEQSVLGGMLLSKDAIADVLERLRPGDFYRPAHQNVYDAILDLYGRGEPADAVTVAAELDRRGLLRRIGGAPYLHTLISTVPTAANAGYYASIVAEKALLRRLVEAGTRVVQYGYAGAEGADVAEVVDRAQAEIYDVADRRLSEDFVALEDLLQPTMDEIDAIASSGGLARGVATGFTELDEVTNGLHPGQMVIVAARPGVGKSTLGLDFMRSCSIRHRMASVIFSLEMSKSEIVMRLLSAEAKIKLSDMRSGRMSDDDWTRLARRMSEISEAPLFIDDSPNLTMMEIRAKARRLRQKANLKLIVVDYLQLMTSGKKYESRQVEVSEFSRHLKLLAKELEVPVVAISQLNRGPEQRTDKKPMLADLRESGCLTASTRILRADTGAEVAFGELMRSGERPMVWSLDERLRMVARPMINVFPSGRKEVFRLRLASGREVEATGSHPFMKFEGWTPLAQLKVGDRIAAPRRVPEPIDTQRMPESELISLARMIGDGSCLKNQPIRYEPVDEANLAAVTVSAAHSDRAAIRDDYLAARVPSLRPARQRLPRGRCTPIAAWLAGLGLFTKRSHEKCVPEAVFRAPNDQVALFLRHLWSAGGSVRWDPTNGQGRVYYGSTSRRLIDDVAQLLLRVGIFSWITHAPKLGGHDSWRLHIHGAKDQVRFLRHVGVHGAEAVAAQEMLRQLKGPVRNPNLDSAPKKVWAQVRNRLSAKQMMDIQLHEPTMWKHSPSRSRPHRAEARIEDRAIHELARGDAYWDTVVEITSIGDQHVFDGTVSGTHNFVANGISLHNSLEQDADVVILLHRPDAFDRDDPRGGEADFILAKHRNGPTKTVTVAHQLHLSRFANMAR
Nature of the experiment: DnaB intein splicing inhibitors, dose response, biochemical, cell-free fluorescence (AID 449749). The experiment is classed as functional.

Experiment [2] concerns the target T2, Protein RecA (Mycobacterium tuberculosis, UniProt P9WHJ3).
T2 sequence (P9WHJ3 whole entry): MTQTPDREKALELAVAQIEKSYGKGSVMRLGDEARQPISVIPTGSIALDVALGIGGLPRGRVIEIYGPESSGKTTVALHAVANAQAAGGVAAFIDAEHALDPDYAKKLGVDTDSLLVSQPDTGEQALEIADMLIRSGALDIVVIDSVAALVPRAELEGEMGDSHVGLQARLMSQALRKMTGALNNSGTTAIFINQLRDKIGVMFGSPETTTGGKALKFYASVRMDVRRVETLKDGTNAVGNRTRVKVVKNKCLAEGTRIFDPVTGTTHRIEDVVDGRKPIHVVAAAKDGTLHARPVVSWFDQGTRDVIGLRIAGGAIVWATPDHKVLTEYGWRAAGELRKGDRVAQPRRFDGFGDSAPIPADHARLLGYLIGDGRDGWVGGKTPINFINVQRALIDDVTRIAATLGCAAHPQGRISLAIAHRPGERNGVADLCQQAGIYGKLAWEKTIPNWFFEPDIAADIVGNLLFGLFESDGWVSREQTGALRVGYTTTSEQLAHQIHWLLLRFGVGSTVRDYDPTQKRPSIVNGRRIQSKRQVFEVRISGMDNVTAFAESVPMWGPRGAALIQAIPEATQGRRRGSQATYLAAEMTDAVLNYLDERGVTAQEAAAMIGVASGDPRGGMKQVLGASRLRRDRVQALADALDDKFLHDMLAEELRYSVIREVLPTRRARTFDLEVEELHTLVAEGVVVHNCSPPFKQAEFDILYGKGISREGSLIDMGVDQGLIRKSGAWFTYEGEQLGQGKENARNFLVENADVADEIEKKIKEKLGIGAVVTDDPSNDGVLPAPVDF
Nature of the experiment: Fluorescence Cell-Free Homogeneous Dose Retest to Identify Inhibitors of RecA-Intein Splicing Activity. [Related pubchem assays (depositor defined):AID2097, AID2223, AID489010, AID492950]. The format is functional.

The target in experiment [3] is Large T antigen (Simian virus 40, UniProt P03070). The format is functional, Betapolyomavirus macacae.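 Also: Confirmatory-stage PubChem screen for compounds that inhibit SV40 T antigen.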
In experiment [4] the target is Genome polyprotein (dengue virus type 2, UniProt P29990). Nature of the experiment: Dengue-2 NS5 methyltransferase inhibitors, primary screen, biochemical, confirmation dose response (AID 588689). The experiment is classed as functional.
The target of experiment [5] is Voltage-gated N-type calcium channel alpha-1B subunit/Amyloid beta A4 precursor protein-binding family A member 1 (Homo sapiens, UniProt Q00975+Q02410). The format is protein assay.
Experiment [6] addresses Troponin, cardiac muscle (Homo sapiens, UniProt P19429+P45379+P63316). Nature of the experiment: inhibitors of cardiac thin filament calcium sensitivity, dose response, biochemical, fluorescence, cardiac regulated thin filaments, triplicate IC50 (AID 504742). The format is protein-complex assay.
The target of experiment [7] is T3, Bifunctional protein GlmU (Mycobacterium tuberculosis, UniProt P9WMN3).
T3 sequence (P9WMN3 whole entry): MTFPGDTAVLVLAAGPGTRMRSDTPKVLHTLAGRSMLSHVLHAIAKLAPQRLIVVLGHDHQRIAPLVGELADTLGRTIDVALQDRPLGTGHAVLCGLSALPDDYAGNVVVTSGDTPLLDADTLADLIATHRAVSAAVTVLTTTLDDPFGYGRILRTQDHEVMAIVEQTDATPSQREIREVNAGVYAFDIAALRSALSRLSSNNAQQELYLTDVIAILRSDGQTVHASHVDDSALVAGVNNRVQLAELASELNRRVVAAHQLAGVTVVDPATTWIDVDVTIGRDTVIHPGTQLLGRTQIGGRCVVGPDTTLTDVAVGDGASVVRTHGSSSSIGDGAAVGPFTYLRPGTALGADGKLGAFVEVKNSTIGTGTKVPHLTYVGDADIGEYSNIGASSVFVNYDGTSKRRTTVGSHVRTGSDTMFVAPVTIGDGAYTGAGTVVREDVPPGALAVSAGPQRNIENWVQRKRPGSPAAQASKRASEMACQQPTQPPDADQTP
Nature of the experiment: Inhibitors of Mycobacterial Glucosamine-1-phosphate acetyl transferase (GlmU). Secondary screen. Details: species or system Mycobacterium tuberculosis H37Rv.

Experiment [8] addresses Intestinal-type alkaline phosphatase (Homo sapiens, UniProt P09923). Nature of the experiment: inhibition of human intestinal alkaline phosphatase – biochemical, dose response (AID 488876). The experiment is classed as functional.
Experiment [9] is described as follows: HepG2 cell cytotoxicity, dose response, cytotoxicity control, plate reader, cherry-pick, antagonist series (AID 743416). The experiment is classed as functional, cell-based.
For experiment [10], the target named is Polyadenylate-binding protein 1 (Homo sapiens, UniProt P11940). The experiment can be described thus: PABP1 MLLE–PAM2 binding inhibitor potency, dose response, biochemical, fluorescence polarization, FITC-PAM2 peptide (AID 602259). Particulars: read-out: IC50_Mean. The experiment is classed as functional.

Calls of active or inactive are those of the source. Bounds are passed on as bounds.

Consider `Cc1cc(C)c(S(=O)(=O)Nc2cc(SCC(=O)O)c(O)c3ccccc23)cc1C`, for which the AC50 in experiment [1] was 1.1 µM (active). The EC50 in experiment [2] is 0.277 µM (active).
Regarding `O=C(O)c1cc(N2N=C(C(F)(F)F)/C(=C/C=C/c3ccco3)C2=O)ccc1Cl`, the IC50 is 4.47 µM (active) in experiment [3]; 24.2 µM (active) in [4]; 11.7 µM (active) in experiment [5]; > 2.65 µM (active) in experiment [6]; 94.3 µM (active) in [7].
Consider `O=C(/C=C/c1ccco1)NC(=S)Nc1cccc(C(=O)O)c1`, for which the IC50 in [8] was > 100 µM (inactive).
Consider `CNCc1ccccc1Sc1ccc(O)c(O)c1`, for which the IC50 in experiment [4] is 21.2 µM (active); in experiment [10], > 66 µM (inactive). Further, the AC50 in experiment [1] is > 120 µM (inactive); in experiment [9] it was > 52 µM (inactive). Also, in [2], the EC50 is 2.57 µM (active).
